Experimental findings from US8435978B2, “Substituted sulfonamide compounds” (Gruenenthal GmbH, priority 2006, dated 2013) are described below.

One experiment concerns the target T1, B1R receptor of the rat (Rattus norvegicus, UniProt P97583).
T1 construct: host or cells: CHO K1 cells (Chinese hamster ovary), stably transfected
T1 sequence (P97583 1-337): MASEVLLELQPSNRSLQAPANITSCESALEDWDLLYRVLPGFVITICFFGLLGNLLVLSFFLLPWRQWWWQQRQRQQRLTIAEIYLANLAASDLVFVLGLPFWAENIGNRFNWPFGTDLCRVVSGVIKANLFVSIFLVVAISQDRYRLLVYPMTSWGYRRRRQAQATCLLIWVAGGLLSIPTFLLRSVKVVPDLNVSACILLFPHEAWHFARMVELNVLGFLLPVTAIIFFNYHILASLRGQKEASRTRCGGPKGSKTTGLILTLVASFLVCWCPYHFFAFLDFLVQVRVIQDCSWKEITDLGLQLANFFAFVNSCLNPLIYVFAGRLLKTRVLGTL
The experiment is described as follows: Functional study on the bradykinin receptor 1 (B1R), FLIPR Ca2+ assay, rB1R cells. The format is cell-based. The settings on record: agonist Des-Arg9-bradykinin 100 nM, % inhibition compared with the maximum achievable inhibition; for inhibition at 10 µM: CHO-K1, test substance 10 μM, read-out: B1R Antagonism, rat [10 μM] % Inhibition. The procedure, abridged: (§1)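 FLIPR Ca2+ assay in recombinant CHO K1 cells (human or rat B1R), Fluo-4 dye; 10 μM compound, 10 min, then EC-level agonist per species (0.5 nM Lys-Des-Arg9-BK human / 100 nM Des-Arg9-BK rat). Output: % inhibition vs maximum.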

Another experiment has as its target T2, human B1R receptor (Homo sapiens, UniProt P46663).
T2 construct: host or cells: CHO K1 cells (Chinese hamster ovary), stably transfected
T2 sequence (P46663 1-353): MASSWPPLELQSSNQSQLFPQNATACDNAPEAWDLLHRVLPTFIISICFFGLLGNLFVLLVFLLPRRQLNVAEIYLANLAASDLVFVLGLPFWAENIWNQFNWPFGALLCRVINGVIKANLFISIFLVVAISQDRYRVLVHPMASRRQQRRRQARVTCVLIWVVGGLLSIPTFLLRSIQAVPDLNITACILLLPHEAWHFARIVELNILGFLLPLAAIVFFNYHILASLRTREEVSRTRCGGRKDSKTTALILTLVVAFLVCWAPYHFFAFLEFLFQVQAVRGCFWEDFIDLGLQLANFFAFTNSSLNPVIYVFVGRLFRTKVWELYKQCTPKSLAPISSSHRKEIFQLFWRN
The experiment is described as follows: Functional study on the bradykinin receptor 1 (B1R), FLIPR Ca2+ assay, hB1R cells. The class given is cell-based. The note with it: agonist Lys-Des-Arg9-bradykinin 0.5 nM, % inhibition compared with the maximum achievable inhibition; for inhibition at 10 µM: CHO-K1, test substance 10 μM, read-out: B1R Antagonism, human [10 μM] % Inhibition. The procedure, abridged:
as §1

As for `Cc1ccc(C)n1CCN1CCN(C(=O)COCC2CCCN2S(=O)(=O)c2c(Cl)cc(Cl)cc2Cl)CC1` (stereo not drawn) [Example 332, 1-(4-(2-(2,5-dimethyl-1H-pyrrol-1-yl)ethyl)piperazin-1-yl)-2-((1-(2,4,6-trichlorophenylsulfonyl)pyrrolidin-2-yl)methoxy)ethanone], the inhibition at 10 µM at B1R receptor of the rat was determined as 101%; at human B1R receptor, 105%.
The matching figures for `COc1ccc(N2CCN(C(=O)COCC3CCCCN3S(=O)(=O)c3c(Cl)cccc3Cl)CC2)cc1` (stereo not drawn) [Example 319, 2-((1-(2,6-dichlorophenylsulfonyl)piperidin-2-yl)methoxy)-1-(4-(4-methoxyphenyl)piperazin-1-yl)ethanone]: 100% and 104%.
Taken in the same sequence, the figures for `Cc1cc(C)c(S(=O)(=O)N2Cc3ccccc3CC2COCC(=O)NCC2CCCN(Cc3ccccc3)C2)c(C)c1` (stereo not drawn) [Example 41, N-(1-benzyl-piperidin-3-ylmethyl)-2-[2-(2,4,6-trimethyl-phenylsulfonyl)-1,2,3,4-tetrahydro-isoquinolin-3-ylmethoxy]-acetamide] were 16.4% and 72.6%.
The matching figures for `COc1cc(C)c(S(=O)(=O)N2CCCC2COCC(=O)NCc2ccc(N3CCN(C)CC3)cc2)c(C)c1` (stereo not drawn) [Example 18, 2-[1-(4-methoxy-2,6-dimethyl-phenylsulfonyl)-pyrrolidin-2-ylmethoxy]-N-[4-(4-methyl-piperazin-1-yl)-benzyl]-acetamide]: 110% and 95.3%.
Regarding `COc1cc(C)c(S(=O)(=O)N2CCCCC2COCC(=O)N2CCc3cc(N4CCN(C)CC4)ccc3C2)c(C)c1` (stereo not drawn) [Example 215, 2-((1-(4-methoxy-2,6-dimethylphenylsulfonyl)piperidin-2-yl)methoxy)-1-(6-(4-methylpiperazin-1-yl)-3,4-dihydroisoquinolin-2(1H)-yl)ethanone], the inhibition at 10 µM on B1R receptor of the rat was determined as 101%; on human B1R receptor, 99.9%.
Take `COc1cc(C)c(S(=O)(=O)N2Cc3ccccc3CC2COCC(=O)N2CCN(c3ccccc3)CC2)c(C)c1C` (stereo not drawn) [Example 479, 2-((2-(4-Methoxy-2,3,6-trimethylphenylsulfonyl)-1,2,3,4-tetrahydroisoquinolin-3-yl)methoxy)-1-(4-phenylpiperazin-1-yl)ethanone]: the inhibition at 10 µM at B1R receptor of the rat worked out at 99.1%; at human B1R receptor, 32.3%.
The matching figures for `COc1ccc(S(=O)(=O)N2c3ccccc3CCC2COCC(=O)N2CCN(C3CCN(C)CC3)CC2)cc1` (stereo not drawn) [Example 204, 2-((1-(4-methoxyphenylsulfonyl)-1,2,3,4-tetrahydroquinolin-2-yl)methoxy)-1-(4-(1-methylpiperidin-4-yl)piperazin-1-yl)ethanone]: 99% and 105%.
As for `COc1cc(C)c(S(=O)(=O)N2CCCCC2COCC(=O)Nc2cc(-c3ccccc3)[nH]n2)c(C)c1` (stereo not drawn) [Example 536, 2-((1-(4-methoxy-2,6-dimethylphenylsulfonyl)piperidin-2-yl)methoxy)-N-(5-phenyl-1H-pyrazol-3-yl)acetamide], the inhibition at 10 µM at B1R receptor of the rat came out at 107%; on human B1R receptor, 63.1%.
`COc1cc(C)c(S(=O)(=O)N2CCCCC2COCC(=O)N2Cc3ccncc3C2)c(C)c1` (stereo not drawn) [Example 206, 2-((1-(4-methoxy-2,6-dimethylphenylsulfonyl)piperidin-2-yl)methoxy)-1-(1H-pyrrol[3,4-c]pyridin-2(3H)-yl)ethanone]: on B1R receptor of the rat (test substance 10 μM, rB1R CHO K1 cells), the “B1R Antagonism, rat [10 μM] % Inhibition” value is reported as 99.49%. Further, the “B1R Antagonism, human [10 μM] % Inhibition” value on human B1R receptor (test substance 10 μM, hB1R CHO K1 cells) is 53.94%.
On to `Cc1cc(C)c(S(=O)(=O)N2Cc3ccccc3CC2COCC(=O)NCc2ccccc2N2CCN(C)CC2)c(C)c1` (stereo not drawn) [Example 75, N-[2-(4-methyl-piperazin-1-yl)-benzyl]-2-[2-(2,4,6-trimethyl-phenylsulfonyl)-1,2,3,4-tetrahydro-isoquinolin-3-ylmethoxy]-acetamide], for which the inhibition at 10 µM on B1R receptor of the rat worked out at 9.11%; on human B1R receptor, 50.1%.
Taken in the same sequence, the figures for `COc1cc(C)c(S(=O)(=O)N2CCCCC2COCC(=O)N2CCN(c3ncc(C(F)(F)F)cc3Cl)CC2)c(C)c1` (stereo not drawn) [Example 376, 1-(4-(3-chloro-5-(trifluoromethyl)pyridin-2-yl)piperazin-1-yl)-2-((1-(4-methoxy-2,6-dimethylphenylsulfonyl)piperidin-2-yl)methoxy)ethanone] were 99% and 67.1%.
As to `COc1cc(C)c(S(=O)(=O)N2Cc3ccccc3CC2COCC(=O)N2CCCCC2Cc2cccc(C)n2)c(C)c1C` (stereo not drawn) [Example 277, 2-((2-(4-methoxy-2,3,6-trimethylphenylsulfonyl)-1,2,3,4-tetrahydroisoquinolin-3-yl)methoxy)-1-(2-((6-methylpyridin-2-yl)methyl)piperidin-1-yl)ethanone], the values for the inhibition at 10 µM at B1R receptor of the rat and at human B1R receptor were 81.6% and 85.5%, respectively.
Take `COc1cc(C)c(S(=O)(=O)N2CCCCC2COCC(=O)NCCC2CCN(c3ccncc3)CC2)c(C)c1` (stereo not drawn) [Example 143, 2-((1-(4-methoxy-2,6-dimethylphenylsulfonyl)piperidin-2-yl)methoxy)-N-(2-(1-(pyridin-4-yl)piperidin-4-yl)ethyl)acetamide]: the inhibition at 10 µM worked out at 99.3% on B1R receptor of the rat and 99.9% on human B1R receptor.
The matching figures for `CN1CCC(N2CCN(C(=O)COCC3CCCCN3S(=O)(=O)c3csc4ccccc34)CC2)CC1` (stereo not drawn) [Example 137, 2-((1-(benzo[b]thiophen-3-ylsulfonyl)piperidin-2-yl)methoxy)-1-(4-(1-methylpiperidin-4-yl)piperazin-1-yl)ethanone]: 98.8% and 102%.
Taken in the same sequence, the figures for `O=C(COCC1CCCCN1S(=O)(=O)c1c(Cl)cccc1Cl)N1CCCC1Cc1ccccn1` (stereo not drawn) [Example 456, 2-((1-(2,6-dichlorophenylsulfonyl)piperidin-2-yl)methoxy)-1-(2-(pyridin-2-ylmethyl)pyrrolidin-1-yl)ethanone] were 101% and 100%.
Taken in the same sequence, the figures for `COc1ccc(S(=O)(=O)N2CCCCC2COCC(=O)Nc2ccc(N3CCOCC3)c3nonc23)cc1` (stereo not drawn) [Example 556, 2-((1-(4-methoxyphenylsulfonyl)piperidin-2-yl)methoxy)-N-(7-morpholinobenzo[c][1,2,5]oxadiazol-4-yl)acetamide] were 85.6% and 12.1%.
As to `COc1ccc(S(=O)(=O)N2Cc3ccccc3C[C@H]2COCC(=O)N2CCC(CCN3CCCC3)CC2)cc1` [Example 182, (S)-2-((2-(4-methoxyphenylsulfonyl)-1,2,3,4-tetrahydroisoquinolin-3-yl)methoxy)-1-(4-(2-(pyrrolidin-1-yl)ethyl)piperidin-1-yl)ethanone], the inhibition at 10 µM on B1R receptor of the rat amounted to 99.7%; at human B1R receptor, 91.1%.
The matching figures for `COc1cc(C)c(S(=O)(=O)N2CCCCC2COCC(=O)NCCCN2C(C)CCCC2C)c(C)c1` (stereo not drawn) [Example 260, N-(3-(2,6-dimethylpiperidin-1-yl)propyl)-2-((1-(4-methoxy-2,6-dimethylphenylsulfonyl)piperidin-2-yl)methoxy)acetamide]: 60.6% and 102%.
Taken in the same sequence, the figures for `COc1cc(C)c(S(=O)(=O)N2CCCCC2COCC(=O)NCCc2cnccn2)c(C)c1` (stereo not drawn) [Example 425, 2-((1-(4-methoxy-2,6-dimethylphenylsulfonyl)piperidin-2-yl)methoxy)-N-(2-(pyrazin-2-yl)ethyl)acetamide] were 98.8% and -0.97%.
The matching figures for `CCN1CCN(c2ccc(NC(=O)COCC3CCCCN3S(=O)(=O)c3ccc(OC)cc3)cc2)CC1` (stereo not drawn) [Example 555, N-(4-(4-ethylpiperazin-1-yl)phenyl)-2-((1-(4-methoxyphenylsulfonyl)piperidin-2-yl)methoxy)acetamide]: 102% and 62.5%.
`COc1ccc(N2CCN(C(=O)COCC3CCCCN3S(=O)(=O)c3c(C)cc(OC)cc3C)CC2)cc1` (stereo not drawn) [Example 290, 2-((1-(4-methoxy-2,6-dimethylphenylsulfonyl)piperidin-2-yl)methoxy)-1-(4-(4-methoxyphenyl)piperazin-1-yl)ethanone]: the inhibition at 10 µM at B1R receptor of the rat is 92.9%; on human B1R receptor, 104%.

One may read the inhibition as the change of the read-out against control, counted positive when it falls.
